Measured values taken from patent publication EP4635500A1, “THERAPEUTIC AGENT FOR BACTERIAL INFECTION” (Sumitomo Pharma Co., Ltd., priority 2022, dated 2024).

Tested on: Enterobacterales
Assay: MIC, broth microdilution, CDC/FDA Antibiotic Resistance Isolate Bank (Example 7, Tables 8, 11, 12)
Type: cell-based
[1] = carbapenemase-producing Enterobacterales, Metallo-β-lactamase (N = 47)
[2] = carbapenemase-producing Enterobacterales, Serine carbapenemase (N=61)

colistin was tested, and the MIC (Enterobacter cloacae, KUB No. 5761, AR Bank # 365) was 1 µg/mL, the MIC (Enterobacter cloacae, KUB No. 5763, AR Bank # 367) was 0.5 µg/mL and the MIC (Enterobacter cloacae, KUB No. 5778, AR Bank # 432) was 0.5 µg/mL. It also gave an MIC (Escherichia coli, KUB No. 5545, AR Bank# 48) of 0.5 µg/mL, an MIC (Escherichia coli, KUB No. 5552, AR Bank# 55) of 0.5 µg/mL and an MIC (Escherichia coli, KUB No. 5555, AR Bank# 58) of 0.5 µg/mL. For the same substance, the MIC (Escherichia coli, KUB No. 5564, AR Bank # 67) was 1 µg/mL, the MIC (Escherichia coli, KUB No. 5578, AR Bank # 81) was 0.5 µg/mL and the MIC (Escherichia coli, KUB No. 5581, AR Bank # 84) was 0.5 µg/mL. The MIC (Escherichia coli, KUB No. 5586, AR Bank # 89) was 0.5 µg/mL, the MIC (Escherichia coli, KUB No. 5601, AR Bank # 104) was 0.5 µg/mL and the MIC (Escherichia coli, KUB No. 5611, AR Bank # 114) was 0.5 µg/mL. For the same substance, the MIC (Escherichia coli, KUB No. 5615, AR Bank # 118) was 1 µg/mL, the MIC (Escherichia coli, KUB No. 5616, AR Bank # 119) was 0.5 µg/mL and the MIC (Escherichia coli, KUB No. 5764, AR Bank # 368) was 0.5 µg/mL. It also gave an MIC (Escherichia coli, KUB No. 5765, AR Bank # 369) of 0.5 µg/mL, an MIC (Escherichia coli, KUB No. 5768, AR Bank # 372) of 0.5 µg/mL and an MIC (Escherichia coli, KUB No. 5769, AR Bank # 373) of 0.5 µg/mL. It also gave an MIC (Escherichia coli, KUB No. 5770, AR Bank # 374) of 0.5 µg/mL, an MIC (Escherichia coli, KUB No. 5780, AR Bank # 434) of 0.5 µg/mL and an MIC (Escherichia, KUB No. 57, AR Bank # 436 (row cut off)) of 0.2 µg/mL. For the same substance, the MIC (Klebsiella oxytoca, KUB No. 5568, AR Bank # 71) was 0.5 µg/mL, the MIC (Klebsiella oxytoca, KUB No. 5776, AR Bank # 380) was 0.5 µg/mL and the MIC (Klebsiella ozaenae, KUB No. 5548, AR Bank# 51) was 0.5 µg/mL. The MIC (Klebsiella ozaenae, KUB No. 5593, AR Bank # 96) was 1 µg/mL, the MIC (Klebsiella pneumoniae KUB No. 5784, AR Bank #438) was 0.5 µg/mL and the MIC (Klebsiella pneumoniae KUB No. 5797, AR Bank #453) was 0.5 µg/mL. It also gave an MIC (Klebsiella pneumoniae KUB No. 5809, AR Bank #504) of 1 µg/mL, an MIC (Klebsiella pneumoniae KUB No. 5810, AR Bank #505) of 1 µg/mL and an MIC (Klebsiella pneumoniae KUB No. 5811, AR Bank #506) of 0.5 µg/mL. It also gave an MIC (Klebsiella pneumoniae KUB No. 5812, AR Bank #507) of 8 µg/mL, an MIC (Klebsiella pneumoniae KUB No. 5827, AR Bank #522) of 32 µg/mL and an MIC (Klebsiella pneumoniae KUB No. 5828, AR Bank #523) of 4 µg/mL. For the same substance, the MIC (Klebsiella pneumoniae KUB No. 5829, AR Bank #524) was 2 µg/mL, the MIC (Klebsiella pneumoniae KUB No. 5830, AR Bank #525) was 16 µg/mL and the MIC (Klebsiella pneumoniae, KUB No. 55, AR Bank# 47) was 64 µg/mL. It also gave an MIC (Klebsiella pneumoniae, KUB No. 5531, AR Bank# 34) of 0.5 µg/mL, an MIC (Klebsiella pneumoniae, KUB No. 5536, AR Bank# 39) of 0.5 µg/mL and an MIC (Klebsiella pneumoniae, KUB No. 5537, AR Bank# 40) of 4 µg/mL. For the same substance, the MIC (Klebsiella pneumoniae, KUB No. 5543, AR Bank# 46) was 4 µg/mL, the MIC (Klebsiella pneumoniae, KUB No. 5546, AR Bank# 49) was 0.5 µg/mL and the MIC (Klebsiella pneumoniae, KUB No. 5563, AR Bank # 66) was 0.5 µg/mL. For the same substance, the MIC (Klebsiella pneumoniae, KUB No. 5565, AR Bank # 68) was 1 µg/mL, the MIC (Klebsiella pneumoniae, KUB No. 5572, AR Bank # 75) was 0.5 µg/mL and the MIC (Klebsiella pneumoniae, KUB No. 5577, AR Bank # 80) was 0.5 µg/mL. The MIC (Klebsiella pneumoniae, KUB No. 5584, AR Bank # 87) was 64 µg/mL, the MIC (Klebsiella pneumoniae, KUB No. 5594, AR Bank # 97) was 8 µg/mL and the MIC (Klebsiella pneumoniae, KUB No. 5603, AR Bank # 106) was 32 µg/mL. For the same substance, the MIC (Klebsiella pneumoniae, KUB No. 5604, AR Bank # 107) was 0.5 µg/mL, the MIC (Klebsiella pneumoniae, KUB No. 5606, AR Bank # 109) was 32 µg/mL and the MIC (Klebsiella pneumoniae, KUB No. 5609, AR Bank # 112) was 0.5 µg/mL. The MIC (Klebsiella pneumoniae, KUB No. 5610, AR Bank # 113) was 0.5 µg/mL, the MIC (Klebsiella pneumoniae, KUB No. 5612, AR Bank # 115) was 1 µg/mL and the MIC (Klebsiella pneumoniae, KUB No. 5614, AR Bank # 117) was 1 µg/mL. The MIC (Klebsiella pneumoniae, KUB No. 5617, AR Bank # 120) was 1 µg/mL, the MIC (Klebsiella pneumoniae, KUB No. 5622, AR Bank # 125) was 16 µg/mL and the MIC (Klebsiella pneumoniae, KUB No. 5626, AR Bank # 129) was 0.5 µg/mL. It also gave an MIC (Klebsiella pneumoniae, KUB No. 5757, AR Bank # 361) of 0.5 µg/mL, an MIC (Klebsiella pneumoniae, KUB No. 5759, AR Bank # 363) of 0.5 µg/mL and an MIC (Klebsiella pneumoniae, KUB No. 5760, AR Bank # 364) of 64 µg/mL. It also gave an MIC (Klebsiella pneumoniae, KUB No. 5772, AR Bank # 376) of 0.5 µg/mL, an MIC (Proteus mirabilis, KUB No. 5775, AR Bank # 379) of 64 µg/mL and an MIC (Raoultella ornithinolvtica, KUB No. 5631, AR Bank # 134) of 8 µg/mL. For the same substance, the MIC (Salmonella Senftenberg, KUB No. 5624, AR Bank # 127) was 0.5 µg/mL, the MIC50 [1] was 0.5 µg/mL and the MIC90 [1] was 8 µg/mL. The MIC50 [2] was 0.5 µg/mL, the MIC90 [2] was >64 µg/mL and the MIC90 (metallo-β-lactamase-producing strains of Enterobacterales) was 8 µg/mL.
